Assay results from ChEMBL document CHEMBL1136539, “N-ferrocenylmethyl, N'-methyl-2-substituted benzimidazolium iodide salts with in vitro activity against the Leishmania infantum parasite strain L1” (Bioorg Med Chem Lett, 2003).

Tested on: Leishmania infantum
Assay: Inhibitory activity against Leishmania infantum parasite L1 strain
Type: functional, organism-based

With `C[C@@H]1[C@H](O)[C@@H](C)/C=C/C=C/C=C/C=C/C=C/C=C/C=C/[C@H](O[C@@H]2O[C@H](C)[C@@H](O)[C@H](N)[C@@H]2O)C[C@@H]2O[C@](O)(C[C@@H](O)C[C@@H](O)[C@H](O)CC[C@@H](O)C[C@@H](O)CC(=O)O[C@H]1C)C[C@H](O)[C@H]2C(=O)O` [AMPHOTERICIN B] the IC50 was < 6.25 µM.
